Consider twelve molecules from ChEMBL document CHEMBL1201862, “PubChem BioAssay data set” (2004).

Some test systems named below: A549; CCRF-CEM; HOP-92; HT-29; LXFL 529; Malme-3M; NCI-H23; OVCAR-5; SF-539; SK-MEL-2; SK-MEL-5; SN12C; TK-10; A498; HOP-62; Hs-578T; LOX IMVI; MCF7; NCI/ADR-RES; PC-3.
Holding throughout (assay): growth of human tumour cells (NCI), 48 h

Each structure is given as a SMILES string.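 Grown in 96-well plates, cells were treated for 48 hours with each compound at five concentrations. Insufficient inhibition: endpoint recorded as highest concentration tested. GI50 marks 50% less growth.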 Calls of active or inactive are those of the source. Rule as the data show it: active = GI50 up to about 1.1 µM and inactive = higher.

Take `O=C(O)Cc1cc(=O)[nH]c2c1/C(=N/O)CCC2`: the GI50 with A549, with CCRF-CEM, in the assay on HOP-92, with HT-29, with LXFL 529 and with Malme-3M was > 100 µM (inactive) in each case. In addition, the GI50 with NCI-H23, in the assay with OVCAR-5, in the assay on SF-539, with SK-MEL-2, in the assay with SK-MEL-5 and with SN12C was > 100 µM (inactive) throughout. Moreover, the GI50 in the assay on TK-10 is > 100 µM (inactive).
Regarding `CSc1ccc(/C=C2\N=C(c3ccccc3)N(/N=C3\C(=O)Nc4ccccc43)C2=O)cc1`, the GI50 with A498 is > 100 µM (inactive); with A549, > 100 µM (inactive); in the assay on CCRF-CEM, 92.5 µM (inactive); in the assay with HOP-62, > 100 µM (inactive); in the assay with HOP-92, > 100 µM (inactive); in the assay on HT-29 it was > 100 µM (inactive). The GI50 with Hs-578T, with LOX IMVI, in the assay on MCF7, in the assay on Malme-3M, in the assay on NCI-H23 and with NCI/ADR-RES was > 100 µM (inactive) in each case. For the same molecule, the GI50 with OVCAR-5, with PC-3, with SF-539, with SK-MEL-2, in the assay with SK-MEL-5 and in the assay with SN12C was > 100 µM (inactive) each time. Also, the GI50 in the assay on TK-10 was > 100 µM (inactive).
Consider `N#CC1(C#N)NC(c2ccccc2)C(C#N)(C#N)NC1c1ccccc1` (stereo unspecified), for which the GI50 is > 100 µM (inactive) with A498; > 100 µM (inactive) in the assay with A549; > 100 µM (inactive) with CCRF-CEM; > 100 µM (inactive) with HOP-62; 86.7 µM (inactive) in the assay with HOP-92; > 100 µM (inactive) with HT-29. The GI50 in the assay on Hs-578T, in the assay with LOX IMVI, with MCF7, in the assay with Malme-3M, in the assay on NCI-H23 and in the assay on NCI/ADR-RES was > 100 µM (inactive) in each case. The GI50 in the assay with OVCAR-5, in the assay on PC-3, in the assay on SF-539, in the assay with SK-MEL-2, in the assay with SK-MEL-5 and with SN12C was > 100 µM (inactive) each time. In the assay with TK-10, the GI50 was > 100 µM (inactive).
In the case of `C=C1C2Oc3ccccc3C1N(c1ccccc1)O2` (stereo unspecified), the GI50 in the assay on A549 was 30.4 µM (inactive); in the assay on CCRF-CEM, 21.3 µM (inactive); with HOP-62, 66.7 µM (inactive); in the assay on HT-29, 23 µM (inactive); with LOX IMVI it was 13.7 µM (inactive); in the assay with LXFL 529, 35.2 µM (inactive). The GI50 in the assay on Malme-3M is 46.7 µM (inactive); with NCI-H23 it was > 10 µM (inactive); with OVCAR-5 it was 80 µM (inactive); in the assay with SF-539, 23.8 µM (inactive); in the assay with SK-MEL-2 it was 9.14 µM (inactive); with SN12C, 23.7 µM (inactive). The GI50 in the assay on TK-10 is 84.9 µM (inactive).
As for `CO/N=C\c1cc(O)c(O)c(/C=N/OC)c1`, the GI50 in the assay on A498 is 49.1 µM (inactive); with A549, 26 µM (inactive); in the assay with CCRF-CEM, 16 µM (inactive); in the assay with HOP-62 it was 51.4 µM (inactive); in the assay with HOP-92, 61.1 µM (inactive); with HT-29, 40.5 µM (inactive). Also, the GI50 in the assay on Hs-578T was 12.6 µM (inactive); with LOX IMVI, 41.3 µM (inactive); with MCF7 it was 29.3 µM (inactive); with Malme-3M, 52.7 µM (inactive); in the assay with NCI-H23, 26.9 µM (inactive); in the assay with NCI/ADR-RES it was 30.6 µM (inactive). Moreover, the GI50 with OVCAR-5 is > 100 µM (inactive); in the assay with PC-3, 33.7 µM (inactive); in the assay with SF-539, 27 µM (inactive); in the assay with SK-MEL-2, > 100 µM (inactive); with SK-MEL-5 it was 55.7 µM (inactive); in the assay on SN12C, 12.8 µM (inactive). Further, the GI50 in the assay with TK-10 is 86.7 µM (inactive).
As to `CN(C)CCCCN1c2ccccc2Sc2ccc(C(=O)c3ccccc3)cc21`, the GI50 in the assay on A498 was 13.8 µM (inactive); with A549, 3.47 µM (inactive); in the assay with CCRF-CEM, 2.27 µM (inactive); with HOP-62, 3.13 µM (inactive); in the assay on HOP-92, 2.44 µM (inactive); in the assay on HT-29, 1.89 µM (inactive). Moreover, the GI50 with Hs-578T is 2.22 µM (inactive); in the assay on LOX IMVI it was 1.8 µM (inactive); in the assay with MCF7, 1.93 µM (inactive); in the assay on Malme-3M it was 1.72 µM (inactive); with NCI-H23, 6.59 µM (inactive); in the assay with NCI/ADR-RES it was 4.39 µM (inactive). The GI50 was 5.64 µM (inactive) with OVCAR-5; 2.32 µM (inactive) with PC-3; 3.29 µM (inactive) with SF-539; 2.71 µM (inactive) with SK-MEL-2; 1.82 µM (inactive) in the assay with SK-MEL-5; 3.11 µM (inactive) in the assay with SN12C. The GI50 in the assay with TK-10 was 3.8 µM (inactive).
For the molecule `COc1ccc(-c2onc(-c3ccc([N+](=O)[O-])cc3)c2C2=NCCCN2)cc1`, the GI50 is > 100 µM (inactive) with A549; > 100 µM (inactive) in the assay with CCRF-CEM; > 100 µM (inactive) with HOP-62; 40.3 µM (inactive) in the assay on HT-29; 51.9 µM (inactive) with LOX IMVI; > 100 µM (inactive) with LXFL 529. In addition, the GI50 with Malme-3M was > 100 µM (inactive); in the assay on NCI-H23, > 100 µM (inactive); with OVCAR-5, > 100 µM (inactive); in the assay on SF-539, > 100 µM (inactive); in the assay with SK-MEL-2, > 100 µM (inactive); with SK-MEL-5, 30.2 µM (inactive). For the same molecule, the GI50 in the assay with SN12C was > 100 µM (inactive).
Take `O=C1C=C(C2=CC(=O)C(=O)c3ccccc32)c2ccccc2C1=O`: the GI50 is 46.6 µM (inactive) in the assay on A498; 35.6 µM (inactive) in the assay on A549; 1.98 µM (inactive) in the assay with CCRF-CEM; 24.2 µM (inactive) with HOP-62; 11.3 µM (inactive) in the assay with HOP-92; 28.6 µM (inactive) in the assay with HT-29. Besides, the GI50 in the assay on Hs-578T was 27.7 µM (inactive); in the assay on LOX IMVI, 3.87 µM (inactive); in the assay with MCF7, 9.98 µM (inactive); with Malme-3M it was 3.44 µM (inactive); in the assay on NCI-H23, 5.07 µM (inactive); in the assay on NCI/ADR-RES, 23.2 µM (inactive). The GI50 in the assay with OVCAR-5 was 18.8 µM (inactive); with PC-3, 15.2 µM (inactive); in the assay on SF-539, 19.4 µM (inactive); in the assay with SK-MEL-2, 19.5 µM (inactive); with SK-MEL-5, 2.85 µM (inactive); in the assay with SN12C, 27 µM (inactive). Besides, the GI50 in the assay with TK-10 was 7.46 µM (inactive).
As to `CC1(C)CCN2C(=O)C34CCCC3CC21S4` (stereo unspecified), the GI50 in the assay on A498 was > 100 µM (inactive); in the assay with A549, > 100 µM (inactive); in the assay on CCRF-CEM, 78 µM (inactive); in the assay with HOP-62, > 100 µM (inactive); in the assay with HOP-92 it was > 100 µM (inactive); in the assay with HT-29, > 100 µM (inactive). In addition, the GI50 with Hs-578T, in the assay on LOX IMVI, in the assay on MCF7, with Malme-3M, with NCI-H23 and in the assay with NCI/ADR-RES was > 100 µM (inactive) each time. Moreover, the GI50 in the assay on OVCAR-5, with PC-3, with SF-539, with SK-MEL-2, in the assay with SK-MEL-5 and with SN12C was > 100 µM (inactive) each time. Besides, the GI50 with TK-10 was > 100 µM (inactive).
Regarding `C1=Nc2ccccc2Cn2nncc21`, the GI50 with A549 is > 100 µM (inactive); in the assay with CCRF-CEM it was 49.9 µM (inactive); in the assay with HOP-62 it was > 100 µM (inactive); in the assay with HOP-92, 54.7 µM (inactive); with HT-29, 45.6 µM (inactive); in the assay on LOX IMVI, 46.9 µM (inactive). Also, the GI50 in the assay with LXFL 529 was 98.2 µM (inactive); in the assay with Malme-3M, 63 µM (inactive); in the assay on NCI-H23 it was > 100 µM (inactive); in the assay with OVCAR-5 it was > 100 µM (inactive); with SF-539, 28.6 µM (inactive); in the assay on SK-MEL-2, 78.2 µM (inactive). Moreover, the GI50 was > 10 µM (inactive) in the assay with SK-MEL-5, > 100 µM (inactive) in the assay on SN12C and > 100 µM (inactive) in the assay with TK-10.
As for `NC(Cc1ncccn1)C(=O)O` (stereo unspecified), the GI50 with A498, in the assay with A549, in the assay on CCRF-CEM, in the assay on HOP-62, with HOP-92 and in the assay with HT-29 was > 100 µM (inactive) throughout. Moreover, the GI50 in the assay on Hs-578T, in the assay on LOX IMVI, with MCF7, in the assay on Malme-3M, in the assay with NCI-H23 and in the assay on NCI/ADR-RES was > 100 µM (inactive) in each case. Also, the GI50 in the assay on OVCAR-5, with PC-3, with SF-539, in the assay on SK-MEL-2, in the assay with SK-MEL-5 and in the assay with SN12C was > 100 µM (inactive) throughout. Besides, in the assay with TK-10, the GI50 is > 100 µM (inactive).
As to `CC[C@@]1(O)C(=O)OCc2c1cc1n(c2=O)Cc2c-1nc1ccccc1c2/C=N\NC(=O)C(N)CO` (stereo partly specified), the GI50 is 1.65 µM (inactive) with A498; 1.05 µM (active) in the assay on A549; 0.0474 µM (active) with CCRF-CEM; 0.201 µM (active) in the assay on HOP-62; 1.87 µM (inactive) with HOP-92; 2.86 µM (inactive) in the assay on HT-29. Moreover, the GI50 in the assay with Hs-578T was > 67.9 µM (inactive); with LOX IMVI, 0.329 µM (active); in the assay with MCF7, 0.27 µM (active); in the assay on Malme-3M, 9.04 µM (inactive); in the assay with NCI-H23, 0.371 µM (active); in the assay on NCI/ADR-RES it was 0.785 µM (active). In addition, the GI50 in the assay with OVCAR-5 was 13.4 µM (inactive); in the assay with PC-3, 2.2 µM (inactive); in the assay on SF-539, 0.138 µM (active); in the assay on SK-MEL-2 it was 32.4 µM (inactive); in the assay on SK-MEL-5 it was 0.684 µM (active); with SN12C, 0.182 µM (active). Also, in the assay on TK-10, the GI50 was > 60.7 µM (inactive).
